# Measurements taken from patent US20240246905A1 (University of Leicester, priority 2021, published 2024).
# What was measured:
# [1] = system: MRSA 252; assay: Disc diffusion (Kirby-Bauer), zone of inhibition; type: cell-based, Staphylococcus aureus; conditions: Staphylococcus aureus, 500 μg/mL, '/' = no zone, read-out: Zone of inhibition
# How it was run: (§1)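 Kirby-Bauer per CLSI 2017: 1 in 200 dilutions of overnight cultures (LB for Gram-negatives, TSB for Gram-positives) spread on Mueller-Hinton agar. Discs loaded with 50 μL antibiotic were added and plates incubated 24 h at 37 °C. Zone of inhibition recorded.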
# [2] = system: MSSA 476; assay: Disc diffusion (Kirby-Bauer), zone of inhibition; type: cell-based, Staphylococcus aureus; conditions: Staphylococcus aureus, 500 μg/mL, '/' = no zone, read-out: Zone of inhibition
# How it was run: as §1
# [3] = system: red blood cells; assay: Hemolysis assay (CO-ADD); type: cell-based; conditions: 32 μg/mL highest concentration tested
# Excerpt: A problem often encountered by emerging drugs is hemolysis, also known as drug-induced immune hemolytic anemia.
# [4] = system: various Staphylococcus aureus strains; assay: Disc diffusion, Staphylococcus aureus strain study; type: cell-based; conditions: Staphylococcus aureus, 500 μg/mL
# Excerpt: At this point in the study it was decided to perform a disc diffusion assay study on 50 S. aureus strains. […] Moreover, by employing a range of mutant strains of S. aureus with specific gene-deletions, it was believed that if particular strains were resistant to the lead compounds, it could provide insights on the likely protein target of the lead antibiotics. However, all six of the compounds utilized in this study were able to inhibit growth of all 50 strains of S. aureus assayed at the chosen concentration of 500 μg/mL concentration (Table 5).
# E. coli DH5α, P. aeruginosa PA01 and the 53 S. aureus strains were recovered from frozen (−80° C.) glycerol (15% v/v) stocks on Lysogeny agar (LA)—Gram negative and trypticase soy agar (TSA)—plates at 37° C. for 24 hours. Single colonies were placed in either 3 mL Lysogeny broth (LB)—Gram negative or trypticase soy broth (TSB)—Gram positive and incubated at 37° C., 250 rpm for 18 hours.
# The antibiotic activity was determined using a Kirby-Bauer method according to Clinical Standard Laboratory Institute (CSLI) Guidelines (2017). Briefly, 180 μL of a 1 in 200 dilution (in LB or TSB) of overnight cultures of selected Gram negative and Gram positive bacteria were applied to an agar plate containing the solid growth medium, Mueller-Hinton agar (MHA). Sterile discs, inoculated with 50 μL of antibiotic, were first added to the agar plate before the plates were incubated for 24 hours at 37° C. Following incubation, the zone of inhibition (if it existed) was recorded.
# [5] = system: Escherichia coli DH5α; assay: Disc diffusion (Kirby-Bauer), zone of inhibition; type: cell-based; conditions: Escherichia coli DH5α; 500 μg/mL; '/' = no zone; read-out: Zone of inhibition
# How it was run: as §1
# [6] = system: Staphylococcus aureus 15981; assay: Disc diffusion (Kirby-Bauer), zone of inhibition; type: cell-based; conditions: Staphylococcus aureus 15981; 500 μg/mL; '/' = no zone; read-out: Zone of inhibition
# How it was run: as §1
# [7] = system: HEK293 cells; assay: Cytotoxicity assay, resazurin (CO-ADD)
# How it was run: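 HEK293 cells in DMEM with 10% FBS were exposed to compounds at a single concentration of 32 μg/mL for 20 h at 37° C, 5% CO2. Viability read by resazurin fluorescence (2.3 μg/mL final, 3 h; F560/590). CC50 from sigmoidal dose-response fitting.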
# [8] = system: MRSA 252; assay: MIC, broth micro-dilution; type: cell-based, Staphylococcus aureus; conditions: Staphylococcus aureus, read-out: MIC
# How it was run: (§2)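 Broth micro-dilution followed CLSI 2017: 1:2 antibiotic dilutions in TSB were inoculated at 5×10^5 CFU/mL. OD was recorded every 12 min over 18 h at 37 °C, and MIC was derived from sigmoidal dose-response fits.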
# [9] = system: MSSA 476; assay: MIC, broth micro-dilution; type: cell-based, Staphylococcus aureus; conditions: Staphylococcus aureus, MSSA, read-out: MIC
# How it was run: as §2
smiles,measurement,setting,value
"[C-]#[N+]/C=C/c1ccc(NC(C)=O)cc1/C=C/c1ccccc1 [Compound 41, N-(4-((E)-2-Isocyanovinyl)-3-((E)-styryl)phenyl)acetamide]",zone of inhibition at 500 µg/mL,[1],32 mm
same,zone of inhibition at 500 µg/mL,[2],34 mm
same,Hemolytic activity (HC10),[3],>32 µg/mL
same,zone of inhibition at 500 µg/mL,[4]; strain ASARM 61,28 mm
same,zone of inhibition at 500 µg/mL,[4]; strain ASARM 70,32 mm
same,zone of inhibition at 500 µg/mL,[4]; strain ASARM 71,32 mm
same,zone of inhibition at 500 µg/mL,[4]; strain ASARM 72,30 mm
same,zone of inhibition at 500 µg/mL,[4]; strain ASARM 73,27 mm
same,zone of inhibition at 500 µg/mL,[4]; strain ASARM 75,26 mm
same,zone of inhibition at 500 µg/mL,[4]; strain ASARM 76,27 mm
same,zone of inhibition at 500 µg/mL,[4]; strain ASARM 77,25 mm
same,zone of inhibition at 500 µg/mL,[4]; strain ASARM 79,29 mm
same,zone of inhibition at 500 µg/mL,[4]; strain ASARM 80,30 mm
same,zone of inhibition at 500 µg/mL,[4]; strain EOE 3,26 mm
same,zone of inhibition at 500 µg/mL,[4]; strain EOE 23,26 mm
same,zone of inhibition at 500 µg/mL,[4]; strain EOE 30,30 mm
same,zone of inhibition at 500 µg/mL,[4]; strain EOE 35,28 mm
same,zone of inhibition at 500 µg/mL,[4]; strain EOE 41,26 mm
same,zone of inhibition at 500 µg/mL,[4]; strain EOE 42,30 mm
same,zone of inhibition at 500 µg/mL,[4]; strain EOE 45,30 mm
same,zone of inhibition at 500 µg/mL,[4]; strain EOE 52,28 mm
same,zone of inhibition at 500 µg/mL,[4]; strain EOE 54,26 mm
same,zone of inhibition at 500 µg/mL,[4]; strain EOE 57,30 mm
same,zone of inhibition at 500 µg/mL,[4]; strain S139_7_7,22 mm
same,zone of inhibition at 500 µg/mL,[4]; strain S197_1_1,32 mm
same,zone of inhibition at 500 µg/mL,[4]; strain S197_1_8,30 mm
same,zone of inhibition at 500 µg/mL,[4]; strain S197_1_9,32 mm
same,zone of inhibition at 500 µg/mL,[4]; strain S197_1_10,31 mm
same,zone of inhibition at 500 µg/mL,[4]; strain S295_1_1,29 mm
same,zone of inhibition at 500 µg/mL,[4]; strain S295_1_2,25 mm
same,zone of inhibition at 500 µg/mL,[4]; strain S295_1_3,27 mm
same,zone of inhibition at 500 µg/mL,[4]; strain S364_5_11,27 mm
same,zone of inhibition at 500 µg/mL,[4]; strain S364_5_12,28 mm
same,zone of inhibition at 500 µg/mL,[4]; strain Sa_TPS 3026,28 mm
same,zone of inhibition at 500 µg/mL,[4]; strain Sa_TPS 3072,26 mm
same,zone of inhibition at 500 µg/mL,[4]; strain Sa_TPS 3092,28 mm
same,zone of inhibition at 500 µg/mL,[4]; strain Sa_TPS 3097,28 mm
same,zone of inhibition at 500 µg/mL,[4]; strain Sa_TPS 3103,28 mm
same,zone of inhibition at 500 µg/mL,[4]; strain Sa_TPS 3104,28 mm
same,zone of inhibition at 500 µg/mL,[4]; strain Sa_TPS 3106,36 mm
same,zone of inhibition at 500 µg/mL,[4]; strain Sa_TPS 3118,32 mm
same,zone of inhibition at 500 µg/mL,[4]; strain Sa_TPS 3133,28 mm
same,zone of inhibition at 500 µg/mL,[4]; strain Sa_TPS 3134,26 mm
same,zone of inhibition at 500 µg/mL,[4]; strain USFL 008,28 mm
same,zone of inhibition at 500 µg/mL,[4]; strain USFL 009,27 mm
same,zone of inhibition at 500 µg/mL,[4]; strain USFL 012,32 mm
same,zone of inhibition at 500 µg/mL,[4]; strain USFL 016,29 mm
same,zone of inhibition at 500 µg/mL,[4]; strain USFL 018,32 mm
same,zone of inhibition at 500 µg/mL,[4]; strain USFL 020,28 mm
same,zone of inhibition at 500 µg/mL,[4]; strain USFL 021,29 mm
same,zone of inhibition at 500 µg/mL,[4]; strain USFL 028,29 mm
same,zone of inhibition at 500 µg/mL,[4]; strain USFL 035,30 mm
same,zone of inhibition at 500 µg/mL,[4]; strain USFL 054,30 mm
same,zone of inhibition at 500 µg/mL,[4]; strain not given,30 mm
same,zone of inhibition at 500 µg/mL,[5],20 mm
same,zone of inhibition at 500 µg/mL,[6],34 mm
same,Concentration toxic to HEK 293 cells,[7]; HEK 293,>32000 ng/mL
same,toxicity towards the HEK293 cell line (in words),[7]; set concentration of 32 μg/mL,no toxicity
same,MIC,[8],6 µg/mL
same,MIC,[9],8 µg/mL
